In brackets after ≈: the same amount, converted by molar mass. Where two headings read alike, the source gives them in different places.
Experiments:
OV = assay: XTT cytotoxicity assay, cells marked (OV); format: cell-based
[1] = Weight loss screen in Balb/C mice; format: in vivo; conditions: for change in vivo at 60 mg/kg / change in vivo at 30 mg/kg: Mus musculus, read-out: Weight Loss; for change in vivo at 60 mg/kg: ip, 60 mg/kg intraperitoneally
Description: Balb/C mice (Jackson Labs) are utilized for the initial weight loss screening. Animals are housed in temperature and 12 hour day/night cycle rooms and fed mouse chow and water ad lib. Three mice are utilized for each compound tested with vehicle controls in triplicate per experiment. For the experiments, mice are housed separately for each compound tested three mice to a cage. […] Mice are observed and weighed daily; average weights and standard errors are computed with Excel (Microsoft). The experiment continues until treated animals reach their pretreatment weights. […]

purified human FAS = target: T1, purified human FAS (Homo sapiens, UniProt P49327); assay: Measurement of FAS enzymatic activity (NADPH oxidation), IC50; format: biochemical
T1 construct: Human FAS was purified from cultured ZR-75-1 human breast cancer cells; endogenous in cells; host or cells: ZR-75-1 human breast cancer cells (ATCC); endogenous enzyme purified by PEG precipitation and Mono Q anion exchange
T1 sequence (P49327 whole entry): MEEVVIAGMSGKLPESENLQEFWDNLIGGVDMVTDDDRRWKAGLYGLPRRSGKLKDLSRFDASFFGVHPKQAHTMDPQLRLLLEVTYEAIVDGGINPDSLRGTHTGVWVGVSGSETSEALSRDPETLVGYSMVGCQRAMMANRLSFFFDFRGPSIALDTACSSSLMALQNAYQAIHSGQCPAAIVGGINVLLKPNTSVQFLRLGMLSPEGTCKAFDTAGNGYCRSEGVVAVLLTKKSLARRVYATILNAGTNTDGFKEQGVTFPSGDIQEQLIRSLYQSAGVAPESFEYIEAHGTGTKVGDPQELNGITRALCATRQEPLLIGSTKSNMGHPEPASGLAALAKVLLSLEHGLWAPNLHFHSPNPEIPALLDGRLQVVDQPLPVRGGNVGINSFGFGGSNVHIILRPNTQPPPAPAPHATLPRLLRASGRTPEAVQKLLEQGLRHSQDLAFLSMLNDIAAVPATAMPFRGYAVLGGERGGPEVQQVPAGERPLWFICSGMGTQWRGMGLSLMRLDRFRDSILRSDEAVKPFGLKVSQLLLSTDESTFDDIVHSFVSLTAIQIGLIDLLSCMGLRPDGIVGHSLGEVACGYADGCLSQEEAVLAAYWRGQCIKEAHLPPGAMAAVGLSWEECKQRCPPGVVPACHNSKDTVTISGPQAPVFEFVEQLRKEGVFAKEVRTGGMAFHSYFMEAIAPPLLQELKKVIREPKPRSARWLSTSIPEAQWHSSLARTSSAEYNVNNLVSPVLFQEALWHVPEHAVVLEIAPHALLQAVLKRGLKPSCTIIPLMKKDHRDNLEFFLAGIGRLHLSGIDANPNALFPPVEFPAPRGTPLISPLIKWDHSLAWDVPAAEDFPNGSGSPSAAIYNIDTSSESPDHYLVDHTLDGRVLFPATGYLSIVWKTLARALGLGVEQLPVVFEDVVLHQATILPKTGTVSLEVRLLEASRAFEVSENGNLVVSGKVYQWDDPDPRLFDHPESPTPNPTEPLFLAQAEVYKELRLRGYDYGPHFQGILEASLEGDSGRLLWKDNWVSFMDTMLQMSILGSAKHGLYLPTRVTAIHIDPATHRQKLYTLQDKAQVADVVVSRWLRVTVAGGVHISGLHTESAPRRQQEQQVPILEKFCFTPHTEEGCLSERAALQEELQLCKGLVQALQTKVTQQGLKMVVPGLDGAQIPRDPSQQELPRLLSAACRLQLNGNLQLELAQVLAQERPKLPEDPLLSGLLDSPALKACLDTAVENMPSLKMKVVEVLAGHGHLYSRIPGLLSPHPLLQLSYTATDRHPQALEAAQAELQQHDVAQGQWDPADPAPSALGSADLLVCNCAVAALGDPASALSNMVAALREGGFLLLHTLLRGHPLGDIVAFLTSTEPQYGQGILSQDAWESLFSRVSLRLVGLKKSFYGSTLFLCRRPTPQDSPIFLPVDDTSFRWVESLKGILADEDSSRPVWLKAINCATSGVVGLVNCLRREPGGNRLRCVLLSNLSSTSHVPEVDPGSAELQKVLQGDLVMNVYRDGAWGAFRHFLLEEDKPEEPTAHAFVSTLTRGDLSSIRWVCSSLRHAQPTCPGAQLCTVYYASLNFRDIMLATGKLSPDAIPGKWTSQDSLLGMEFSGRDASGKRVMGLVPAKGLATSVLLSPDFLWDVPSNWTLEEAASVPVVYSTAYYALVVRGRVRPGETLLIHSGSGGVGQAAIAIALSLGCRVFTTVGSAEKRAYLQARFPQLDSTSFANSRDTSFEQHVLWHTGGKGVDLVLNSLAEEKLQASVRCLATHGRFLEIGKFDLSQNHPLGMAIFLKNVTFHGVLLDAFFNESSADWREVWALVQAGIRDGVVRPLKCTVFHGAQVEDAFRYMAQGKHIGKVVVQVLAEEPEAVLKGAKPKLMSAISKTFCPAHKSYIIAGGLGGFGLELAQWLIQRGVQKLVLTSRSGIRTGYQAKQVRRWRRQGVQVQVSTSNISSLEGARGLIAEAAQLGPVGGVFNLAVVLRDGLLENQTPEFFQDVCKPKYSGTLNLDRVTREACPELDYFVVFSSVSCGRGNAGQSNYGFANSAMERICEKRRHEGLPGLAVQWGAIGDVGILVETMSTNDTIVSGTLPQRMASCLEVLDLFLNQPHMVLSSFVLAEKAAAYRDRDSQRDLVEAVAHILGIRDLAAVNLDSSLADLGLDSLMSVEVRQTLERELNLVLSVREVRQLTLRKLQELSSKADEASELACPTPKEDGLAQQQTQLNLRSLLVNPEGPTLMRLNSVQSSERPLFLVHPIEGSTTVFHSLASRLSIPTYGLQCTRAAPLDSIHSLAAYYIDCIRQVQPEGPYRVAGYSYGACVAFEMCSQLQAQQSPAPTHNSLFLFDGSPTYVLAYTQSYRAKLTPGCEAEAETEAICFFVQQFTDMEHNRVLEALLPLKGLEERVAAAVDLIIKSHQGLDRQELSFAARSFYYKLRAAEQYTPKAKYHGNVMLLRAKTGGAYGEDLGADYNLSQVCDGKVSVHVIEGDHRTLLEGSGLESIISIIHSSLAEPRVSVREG
Description: Human FAS was purified from cultured ZR-75-1 human breast cancer cells obtained from the American Type Culture Collection. The procedure, adapted from Linn et al., 1981, and Kuhajda et al., 1994, utilizes hypotonic lysis, successive polyethyleneglycol (PEG) precipitations, and anion exchange chromatography. […] The lysate is centrifuged in JA-20 rotor (Beckman) at 20,000 rpm for 30 minutes at 4° C. and the supernatant is brought to 42 ml with lysis buffer. A solution of 50% PEG 8000 in lysis buffer is added slowly to the supernatant to a final concentration of 7.5%. After rocking for 60 minutes at 4° C., the solution is centrifuged in JA-20 rotor (Beckman) at 15,000 rpm for 30 minutes at 4° C. […] After the rocking and centrifugation is repeated as above, the pellet is resuspended overnight at 4° C. in 10 ml of Buffer A (20 mM K2HPO4, pH 7.4). After 0.45 μM filtration, the protein solution is applied to a Mono Q 5/5 anion exchange column (Pharmacia). The column is washed for 15 minutes with buffer A at 1 ml/minute, and bound material is eluted with a linear 60-ml gradient over 60 minutes to 1 M KCl. […] FAS protein concentration is determined using the Coomassie Plus Protein Assay Reagent (Pierce) according to manufacturer's specifications using BSA as a standard. This procedure results in substantially pure preparations of FAS (>95%) as judged by Coomassie-stained gels. FAS activity is measured by monitoring the malonyl-CoA dependent oxidation of NADPH spectrophotometrically at OD340 in 96-well plates (Dils et al and […] et al, 1975). […] For each experiment, cerulenin (Sigma) is run as a positive control along with DMSO controls, inhibitors, and blanks (no FAS enzyme) all in duplicate. The assay is performed on a Molecular Devices SpectraMax Plus Spectrophotometer. The plate containing FAS, buffers, inhibitors, and controls are placed in the spectrophotometer heated to 37° C. Using the kinetic protocol, the wells are blanked on duplicate wells containing 100 μl of 100 mM K2HPO4, pH 6.5 and the plate is read at OD340 at 10 sec intervals for 5 minutes to measure any malonyl-CoA independent oxidation of NADPH. The plate is removed from the spectrophotometer and malonyl-CoA (67.4 μM, final concentration per well) and […] (61.8 μM, final concentration per well) are added to each well except to the blanks. The plate is read again as above with the kinetic protocol to measure the malonyl-CoA dependent NADPH oxidation. The difference between the Δ OD340 for the malonyl-CoA dependent and non-malonyl-CoA dependent NADPH oxidation is the specific FAS activity. Because of the purity of the FAS preparation, non-malonyl-CoA dependent NADPH oxidation is negligible. […] Graphs of Δ OD340 versus time are plotted by the SOFTmax PRO software (Molecular Devices) for each compound concentration.

[2] = tested on: Pseudomonas aeruginosa (ATCC # 27853); assay: Broth microdilution MIC; format: cell-based; conditions: for PSAE/MH(MIC): Mueller Hinton Broth; for PSAE/Tsoy(MIC): Trypticase Soy Broth
Method in brief: (§1)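 Run in Mueller Hinton Broth and Trypticase Soy Broth, with inoculum at 0.5 McFarland diluted 1:10 and compounds in DMSO at 25 to 0.78 ug/ml (final well concentrations not given) in duplicate. OD600 read after 24 h at 37° C; MIC derived by linear regression.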

[3] = tested on: Escherichia coli (ATCC # 25922); assay: Broth microdilution MIC; format: cell-based; conditions: for MIC: Escherichia coli, ATCC25922
Method in brief: as §1

[4] = tested on: Staphylococcus aureus (ATCC # 29213); assay: Broth microdilution MIC; format: cell-based; conditions: for MIC: Staphylococcus aureus, ATCC29213
Method in brief: as §1

[5] = tested on: Enterococcus faecalis (ATCC # 29212); assay: Broth microdilution MIC; format: cell-based; conditions: for MIC: Enterococcus faecalis, ATCC29212
Method in brief: as §1

[6] = Mueller Hinton Broth, read-out: SA/MH(MIC)
[7] = Trypticase Soy Broth, read-out: SA/Tsoy(MIC)
[8] = Mueller Hinton Broth, read-out: EF/MH(MIC)
[9] = Trypticase Soy Broth, read-out: EF/Tsoy(MIC)
[10] = Trypticase Soy Broth, read-out: Ecoli/Tsoy(MIC)
[11] = Mueller Hinton Broth, read-out: Ecoli/MH(MIC)

## CCCCCCCCC1(C)SC(=O)C=C1OCC(=O)NNC(=O)c1ccco1 (stereo not drawn)
OV
  IC50: 21.3 µg/mL (≈ 52.1 µM)
[1]; 96 h, day4
  change in vivo at 60 mg/kg: 6.3%
Purified human FAS
  FAS(IC50): Neg

## CCCCCCCCC1(C)SC(=O)C=C1OCC(=O)NNC(C)=O (stereo not drawn)
OV
  IC50: 16 µg/mL (≈ 44.9 µM)
[1]; 96 h, day4
  change in vivo at 60 mg/kg: 5.9%
Purified human FAS
  FAS(IC50): Neg

## CCCCCCCCC1(C)SC(=O)C=C1OCC(=O)NNCc1ccc(Cl)cc1 (stereo not drawn)
OV
  IC50: 16 µg/mL (≈ 36.4 µM)
[1]; 48 h, day2
  change in vivo at 60 mg/kg: 1.4%
Purified human FAS
  FAS(IC50): Neg

## CCCCCCCCC1(C)SC(=O)C=C1OCc1ccccc1 (stereo not drawn)
OV
  IC50: 27.8 µg/mL (≈ 83.6 µM)
[1]; 72 h, day3
  change in vivo at 60 mg/kg: 5.2%
Purified human FAS
  FAS(IC50): Neg

## C=CCOC1=CC(=O)S[C@]1(C)CCCCCCCC (racemic)
[2]
  PSAE/MH(MIC): Neg
  PSAE/Tsoy(MIC): Neg
[3]; Mueller Hinton Broth
  Ecoli/MH(MIC): Neg
[3]; Trypticase Soy Broth
  Ecoli/Tsoy(MIC): Neg
[4]; [6]
  MIC: 127 µg/mL (≈ 450 µM)
[4]; [7]
  MIC: 85 µg/mL (≈ 301 µM)
[5]; [8]
  MIC: 238 µg/mL (≈ 843 µM)
[5]; [9]
  MIC: 238 µg/mL (≈ 843 µM)
[1]; 60 mg/kg, day3, three mice
  Deaths in weight loss screen: 3 of 3 dead
[1]; 48 h, 30 mg/kg, day2
  change in vivo at 30 mg/kg: 4.7%
Purified human FAS
  FAS(IC50): Neg

## CCCCCCCC[C@@]1(C)SC(=O)C=C1OCC(=O)OCC (racemic)
[2]
  PSAE/MH(MIC): Neg
  PSAE/Tsoy(MIC): Neg
[3]; Mueller Hinton Broth
  Ecoli/MH(MIC): Neg
[3]; Trypticase Soy Broth
  Ecoli/Tsoy(MIC): Neg
[4]; Mueller Hinton Broth
  SA/MH(MIC): Neg
[4]; [7]
  MIC: 83 µg/mL (≈ 253 µM)
[5]; [8]
  MIC: 86 µg/mL (≈ 262 µM)
[5]; Trypticase Soy Broth
  EF/Tsoy(MIC): Neg
[1]; 24 h
  change in vivo at 30 mg/kg: 4.5%
[1]; 24 h, day1
  change in vivo at 60 mg/kg: 1.8%
Purified human FAS
  FAS(IC50): Neg

## CCCCCC[C@@]1(C)SC(=O)C=C1OCC(=O)NCC(=O)O (racemic)
[2]
  PSAE/MH(MIC): Neg
  PSAE/Tsoy(MIC): Neg
[3]; [10]
  MIC: 235 µg/mL (≈ 713 µM)
[3]; Mueller Hinton Broth
  Ecoli/MH(MIC): Neg
[4]; [6]
  MIC: 78 µg/mL (≈ 237 µM)
[4]; [7]
  MIC: 225 µg/mL (≈ 683 µM)
[5]; [8]
  MIC: 121 µg/mL (≈ 367 µM)
[5]; [9]
  MIC: 173 µg/mL (≈ 525 µM)
[1]; 48 h, day2
  change in vivo at 60 mg/kg: 3.5%
Purified human FAS
  FAS(IC50): Neg

## CCCCCCCC[C@@]1(C)SC(=O)C=C1OC(=O)OC (racemic)
[2]
  PSAE/MH(MIC): Neg
  PSAE/Tsoy(MIC): Neg
[3]; [11]
  MIC: 296 µg/mL (≈ 985 µM)
[3]; Trypticase Soy Broth
  Ecoli/Tsoy(MIC): Neg
[4]; [6]
  MIC: 64 µg/mL (≈ 213 µM)
[4]; [7]
  MIC: 41 µg/mL (≈ 136 µM)
[5]; [8]
  MIC: 73 µg/mL (≈ 243 µM)
[5]; [9]
  MIC: 65 µg/mL (≈ 216 µM)
[1]; 24 h, day1
  change in vivo at 60 mg/kg: 7.65%
Purified human FAS
  IC50: 5.99 µM

## C=CCOC(=O)OC1=CC(=O)S[C@]1(C)CCCCCCCC (racemic)
[2]
  PSAE/MH(MIC): Neg
  PSAE/Tsoy(MIC): Neg
[3]; [11]
  MIC: 82 µg/mL (≈ 251 µM)
[3]; [10]
  MIC: 87 µg/mL (≈ 266 µM)
[4]; [6]
  MIC: 57 µg/mL (≈ 175 µM)
[4]; [7]
  MIC: 28 µg/mL (≈ 85.8 µM)
[5]; [8]
  MIC: 79 µg/mL (≈ 242 µM)
[5]; [9]
  MIC: 75 µg/mL (≈ 230 µM)
[1]; 48 h
  change in vivo at 30 mg/kg: 1%
[1]; 48 h, day2
  change in vivo at 60 mg/kg: 6.2%
Purified human FAS
  IC50: 16.8 µM

## CCCCCCCC[C@@]1(C)SC(=O)C(C(C)=O)=C1O (racemic)
[2]
  PSAE/MH(MIC): Neg
  PSAE/Tsoy(MIC): Neg
[3]; [10]
  MIC: 177 µg/mL (≈ 622 µM)
[3]; Mueller Hinton Broth
  Ecoli/MH(MIC): Neg
[4]; [6]
  MIC: 3.4 µg/mL (≈ 12 µM)
[4]; [7]
  MIC: 1.4 µg/mL (≈ 4.92 µM)
[5]; [8]
  MIC: 2.5 µg/mL (≈ 8.79 µM)
[5]; [9]
  MIC: 2 µg/mL (≈ 7.03 µM)
[1]; 48 h, day2
  change in vivo at 60 mg/kg: 8.2%
Purified human FAS
  FAS(IC50): Neg
